Legend:
[1] = tested on: adult Snrpn-EGFP mouse model; test: Long-lasting unsilencing in adult Snrpn-EGFP mice; assay type: in vivo; conditions: 1, 4, and 12 weeks after the last dose; brain
Protocol: For testing long lasting drug effects, the 6 week-old m^S-EGFP/p^+ mice were treated daily by i.p. injection for seven consecutive days.
For reverse-transcription PCR (RT-PCR) and quantitative real time RT-PCR (qRT-PCR), first total RNA was extracted from the fibroblasts and/or collected tissues (liver and brain) using Direct-zol RNA Miniprep kit (Zymo Research cat. no. R2070). 2 μg of total RNA was directly used for single strand cDNA synthesis with Superscript III reverse transcriptase (Invitrogen cat. no. 18080-093) according to the manufacturer's protocols. The conditions for RT-PCR were 95° C./5 min, 35-40 cycles of 95° C./30 sec, 56-60° C./60 sec, 72° C./60 sec. Quantification of target gene expression was performed in a LightCycler480 instrument (Roche) using SsoAdvanced Universal SYBR green Supermix (Biorad cat. no. 172-5271) according to the manufacturer's instructions. See Table 4 for primer sequences and conditions used for experiments for RT-PCR, qRT-PCR, bisulfite genomic sequencing, ChIP-qPCR, and chromatin accessibility assay.

[2] = in vivo; cited from earlier work
human PWS fibroblasts [3] = test: Western blot of SNRPN protein in human PWS fibroblasts; assay type: cell-based; conditions: 4 μM, 72 hr
human PWS fibroblasts [4] = test: Chromatin accessibility assay; assay type: cell-based; conditions: vs vehicle-treated controls
Protocol: Chromatin accessibility assay was performed to investigate whether G9a inhibitors change open/close state of the imprinted cluster in the PWS-IC region according to Pai, C.C., et al. Nature communications 5, 4091 (2014) with slight modifications. Briefly, 3 days after drug treatment in human PWS fibroblasts, the cells were harvested and lysed with lysis buffer (0.5% NP-40, 15 mM Tris-HCl [pH 7.4], 0.15 mM Spermidine, 0.5 mM Spermine, 15 mM NaCl, 60 mM KCl, 1 mM DTT, 0.1 mM PMSF, 0.5M Sucrose, Protease and Phosphatase inhibitor cocktail (Roche)). The lysed cells were collected by centrifugation (3000 RPM/10 min/4° C.) and rinsed with digestive buffer (15 mM Tris-HCl [pH 7.4], 15 mM NaCl, 60 mM KCl, 4 mM MgCl2, 1 mM DTT, 0.1 mM PMSF, 0.35M Sucrose). After rinsing the cell pellets, MNase (NEB) was added to digest open status of chromatins, followed by genomic qPCR to determine changes in amount of SNRPN and other imprinted genes.

SMILES	maternal expression of Snrpn-EGFP [1]	pharmacokinetic properties such as central nervous system penetration [2]	SNRPN protein, of normal levels (human PWS fibroblasts [3])	chromatin accessibility across the imprinted domains incl. SNRPN and SNORD116 (human PWS fibroblasts [4])
COc1cc2c(NC3CCN(C(C)C)CC3)nc(N3CCC(F)(F)CC3)nc2cc1OCCCN1CCCC1 [UNC0642]	long lasting effect	superior to UNC0638	–	–
COc1cc2c(NC3CCN(C(C)C)CC3)nc(C3CCCCC3)nc2cc1OCCCN1CCCC1 [UNC0638]	–	–	approximately 30%	more open and accessible

From patent publication US11278550B2, “Compositions and methods for the treatment of Prader-Willi syndrome” (Duke University, priority 2016, dated 2022)
